Measurements: patent US11046662B2, “2-aryl-4-hydroxy-1,3-thiazole derivatives useful as TRPM8-inhibitors in treatment of neuralgia, pain, COPD and asthma” (DOMPÉ FARMACEUTICI S.P.A., priority 2014, dated 2021)

Columns and labels:
human Cannabinoid CB1 = human Cannabinoid CB1 (Homo sapiens (Human), UniProt P21554); test: GPCR radioligand binding assay; settings: tested at 10 μM in duplicate
[1] = target: human Serotoninergic 5-HT1A (Homo sapiens (Human), UniProt P08908); test: GPCR radioligand binding assay; settings: tested at 10 μM in duplicate
mechanical allodynia = test: Chronic constriction model of pain, mechanical allodynia (Dynamic Plantar Aesthesiometer); assay type: in vivo, male Sprague-Dawley rats; settings: oral 10 mg/kg
Description: (§1) Neuropathic pain behavior will be induced by ligation of the sciatic nerve according to the method described by Bennett G J et al., Pain. 33: 87-107, 1988. Briefly, male Sprague-Dawley rats will be anaesthetized (100 mg/kg ketamine and 10 mg/kg xylazine i.p.) and the left sciatic nerve will be exposed at the level of the thigh by blunt dissection through the biceps femoris. Proximal to the sciatic's trifurcation, about 12 mm of nerve will be freed of adhering tissue and four ligatures will be loosely tied around it with about 1 mm spacing so that the epineural circulation will be preserved. The length of nerve thus affected was 6-8 mm long. The animals will be allowed to recover and used the day after the surgery. Sham animals represent rats operated but not ligated.
(§2) All data were presented as the mean±SEM. Analysis of data was conducted using GraphPad Prism 4.01. Statistical analysis was performed by two-way ANOVA followed by Dunnett's test for multiple comparisons, as appropriate. Statistical significance was set at p<0.05.

TRPV1 = TRPV1 (Homo sapiens (Human), UniProt Q8NER1); test: TRPV1 antagonist calcium influx assay; assay type: cell-based; settings: agonist capsaicin = 100%, ruthenium red = 0
Text: The signal elicited in the presence of the positive control agonist (capsaicin) was set to 100% and the signal in the presence of the antagonist (ruthenium red) was set to 0. […] The signal elicited in the presence of the positive control agonist (GSK1016790A) was set to 100% and the signal in the presence of the antagonist (ruthenium red) was set to 0. […] The signal elicited in the presence of the positive control agonist (allyl isothiocyanate, AITC) was set to 100% and the signal in the presence of the antagonist (ruthenium red) was set to 0.

human Adrenergic β1 = human Adrenergic β1 (Homo sapiens (Human), UniProt P08588); test: GPCR radioligand binding assay; settings: tested at 10 μM in duplicate
human Dopamine D3 = human Dopamine D3 (Homo sapiens (Human), UniProt P35462); test: GPCR radioligand binding assay; settings: tested at 10 μM in duplicate
human Opioid μ (MOP) = human Opioid μ (MOP) (Homo sapiens (Human), UniProt P35372); test: GPCR radioligand binding assay; settings: tested at 10 μM in duplicate
human NK1 = human NK1 (Homo sapiens (Human), UniProt P25103); test: GPCR radioligand binding assay; settings: tested at 10 μM in duplicate
human Histamine H1 = human Histamine H1 (Homo sapiens (Human), UniProt P35367); test: GPCR radioligand binding assay; settings: tested at 10 μM in duplicate
human Adrenergic α2A = human Adrenergic α2A (Homo sapiens (Human), UniProt P08913); test: GPCR radioligand binding assay; settings: tested at 10 μM in duplicate
human Histamine H2 = human Histamine H2 (Homo sapiens (Human), UniProt P25021); test: GPCR radioligand binding assay; settings: tested at 10 μM in duplicate
[2] = Plasma Protein Binding, rat; assay type: in vitro ADME
Rat Plasma Stability = assay type: in vitro ADME
hERG channel = hERG channel (Homo sapiens (Human), UniProt Q12809); test: hERG inhibition
human TRPM8 = human TRPM8 (Homo sapiens (Human), UniProt Q7Z2W7); test: HTS cellular-based calcium assay for human TRPM8 antagonists (FLIPR TETRA); settings: HEK293/hTRPM8 cells, agonist Cooling Agent 10 at EC80, Ca2+ fluorescence
human Adrenergic β2 = human Adrenergic β2 (Homo sapiens (Human), UniProt P07550); test: GPCR radioligand binding assay; settings: tested at 10 μM in duplicate
human Muscarinic M3 = human Muscarinic M3 (Homo sapiens (Human), UniProt P20309); test: GPCR radioligand binding assay; settings: tested at 10 μM in duplicate
human Opioid δ2 (DOP) = human Opioid δ2 (DOP) (Homo sapiens (Human), UniProt P41143); test: GPCR radioligand binding assay; settings: tested at 10 μM in duplicate
human Bradykinin B2 = human Bradykinin B2 (Homo sapiens (Human), UniProt P30411); test: GPCR radioligand binding assay; settings: tested at 10 μM in duplicate
human Opioid NOP (ORL1) = human Opioid NOP (ORL1) (Homo sapiens (Human), UniProt P41146); test: GPCR radioligand binding assay; settings: tested at 10 μM in duplicate
CYP2C19 = CYP2C19 (Homo sapiens (Human), UniProt P33261); test: CYP450 Inhibition; assay type: in vitro ADME; settings: at 10 μM
human Dopamine D2S = human Dopamine D2S (Homo sapiens (Human), UniProt P14416); test: GPCR radioligand binding assay; settings: tested at 10 μM in duplicate
human Bradykinin B1 = human Bradykinin B1 (Homo sapiens (Human), UniProt P46663); test: GPCR radioligand binding assay; settings: tested at 10 μM in duplicate
human Cannabinoid CB2 = human Cannabinoid CB2 (Homo sapiens (Human), UniProt P34972); test: GPCR radioligand binding assay; settings: tested at 10 μM in duplicate
[3] = Pharmacokinetic profile, intravenous and oral administration; assay type: in vivo
Description: The ADME properties and the pharmacokinetic profile of compound 2 were evaluated.

CYP2D6 = CYP2D6 (Homo sapiens (Human), UniProt P10635); test: CYP450 Inhibition; assay type: in vitro ADME; settings: at 10 μM
CLint (rat) = assay type: in vitro ADME
CYP3A4 = CYP3A4 (Homo sapiens (Human), UniProt P08684); test: CYP450 Inhibition; assay type: in vitro ADME; settings: at 10 μM
human Adrenergic α1A = human Adrenergic α1A (Homo sapiens (Human), UniProt P35348); test: GPCR radioligand binding assay; settings: tested at 10 μM in duplicate
human Muscarinic M2 = human Muscarinic M2 (Homo sapiens (Human), UniProt P08172); test: GPCR radioligand binding assay; settings: tested at 10 μM in duplicate
CYP2C9 = CYP2C9 (Homo sapiens (Human), UniProt P11712); test: CYP450 Inhibition; assay type: in vitro ADME; settings: at 10 μM
human cytochrome isoform = test: Effect towards human cytochrome isoforms; assay type: in vitro ADME; settings: at the maximal concentration of 10 μM
[4] = Plasma Protein Binding, human; assay type: in vitro ADME
human Opioid K (KOP) = human Opioid K (KOP) (Homo sapiens (Human), UniProt P41145); test: GPCR radioligand binding assay; settings: tested at 10 μM in duplicate
cold allodynia = test: Chronic constriction model of pain, cold allodynia (drop of acetone); assay type: in vivo, male Sprague-Dawley rats; settings: oral 10 mg/kg
Description: as §1, §2

CYP1A2 = CYP1A2 (Homo sapiens (Human), UniProt P05177); test: CYP450 Inhibition; assay type: in vitro ADME; settings: at 10 μM
[5] = day 7 and day 14, 3 hours and 5 hours post-dose
[6] = day 7 and day 14 after nerve injury, 3 hours after treatment
[7] = oral administration, PO 10 mg/kg
[8] = plasma, intravenous administration, IV 5 mg/kg
[9] = plasma, oral administration, PO 10 mg/kg

Chain of hERG channel (Q12809 whole entry): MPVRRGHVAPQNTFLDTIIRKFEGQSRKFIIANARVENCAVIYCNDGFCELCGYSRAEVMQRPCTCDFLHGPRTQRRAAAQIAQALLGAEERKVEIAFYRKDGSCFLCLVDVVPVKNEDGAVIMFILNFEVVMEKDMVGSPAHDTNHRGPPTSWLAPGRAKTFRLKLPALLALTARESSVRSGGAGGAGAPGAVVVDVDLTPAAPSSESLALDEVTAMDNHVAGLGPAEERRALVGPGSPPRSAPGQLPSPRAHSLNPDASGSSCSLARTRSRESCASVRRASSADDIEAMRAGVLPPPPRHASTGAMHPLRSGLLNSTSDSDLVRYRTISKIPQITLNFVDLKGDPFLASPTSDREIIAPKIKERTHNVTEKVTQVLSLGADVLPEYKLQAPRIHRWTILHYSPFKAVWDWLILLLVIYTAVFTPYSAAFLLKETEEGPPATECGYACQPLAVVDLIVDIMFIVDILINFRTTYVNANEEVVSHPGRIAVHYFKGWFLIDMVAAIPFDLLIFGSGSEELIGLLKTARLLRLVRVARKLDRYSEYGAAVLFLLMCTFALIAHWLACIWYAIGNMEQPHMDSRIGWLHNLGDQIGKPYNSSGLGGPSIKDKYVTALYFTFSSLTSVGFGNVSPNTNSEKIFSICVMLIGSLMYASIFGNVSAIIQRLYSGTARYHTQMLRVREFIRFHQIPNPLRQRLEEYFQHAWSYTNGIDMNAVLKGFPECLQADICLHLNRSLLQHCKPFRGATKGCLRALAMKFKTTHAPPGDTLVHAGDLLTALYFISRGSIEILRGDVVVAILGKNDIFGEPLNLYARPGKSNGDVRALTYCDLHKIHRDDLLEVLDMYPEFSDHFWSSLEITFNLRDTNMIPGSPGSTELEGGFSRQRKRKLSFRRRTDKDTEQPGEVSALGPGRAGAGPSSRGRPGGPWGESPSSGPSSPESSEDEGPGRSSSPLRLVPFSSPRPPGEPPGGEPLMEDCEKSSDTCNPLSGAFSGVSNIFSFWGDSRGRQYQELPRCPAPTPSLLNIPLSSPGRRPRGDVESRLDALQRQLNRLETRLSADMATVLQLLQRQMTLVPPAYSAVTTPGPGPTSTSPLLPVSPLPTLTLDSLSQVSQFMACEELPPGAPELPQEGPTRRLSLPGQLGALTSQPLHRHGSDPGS
Chain of human Adrenergic β1 (P08588 whole entry): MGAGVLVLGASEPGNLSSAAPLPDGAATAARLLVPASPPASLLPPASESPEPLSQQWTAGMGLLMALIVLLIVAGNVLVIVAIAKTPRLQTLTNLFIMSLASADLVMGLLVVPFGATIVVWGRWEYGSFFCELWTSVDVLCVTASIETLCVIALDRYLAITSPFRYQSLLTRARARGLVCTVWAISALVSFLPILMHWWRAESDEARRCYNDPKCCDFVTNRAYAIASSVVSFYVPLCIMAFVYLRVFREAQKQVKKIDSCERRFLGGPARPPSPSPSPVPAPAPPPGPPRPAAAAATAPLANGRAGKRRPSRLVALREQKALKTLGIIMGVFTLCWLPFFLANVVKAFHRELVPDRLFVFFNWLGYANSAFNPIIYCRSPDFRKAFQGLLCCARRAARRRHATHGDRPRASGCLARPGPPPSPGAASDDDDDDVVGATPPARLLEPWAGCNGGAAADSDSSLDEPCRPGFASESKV
Chain of CYP2C19 (P33261 whole entry): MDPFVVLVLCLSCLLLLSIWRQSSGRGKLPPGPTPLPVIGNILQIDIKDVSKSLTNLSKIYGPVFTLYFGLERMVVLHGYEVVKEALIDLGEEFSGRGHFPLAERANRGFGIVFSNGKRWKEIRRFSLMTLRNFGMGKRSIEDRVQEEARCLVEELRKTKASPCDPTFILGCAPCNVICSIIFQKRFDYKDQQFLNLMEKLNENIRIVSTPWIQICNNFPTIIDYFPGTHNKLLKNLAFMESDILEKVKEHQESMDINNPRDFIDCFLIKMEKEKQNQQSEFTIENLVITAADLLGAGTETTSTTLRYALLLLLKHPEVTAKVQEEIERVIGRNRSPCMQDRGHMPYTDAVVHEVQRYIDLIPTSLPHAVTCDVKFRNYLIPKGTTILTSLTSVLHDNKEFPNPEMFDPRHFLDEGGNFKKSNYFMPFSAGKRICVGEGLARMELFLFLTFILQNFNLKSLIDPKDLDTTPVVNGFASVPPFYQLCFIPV
Chain of human Muscarinic M3 (P20309 whole entry): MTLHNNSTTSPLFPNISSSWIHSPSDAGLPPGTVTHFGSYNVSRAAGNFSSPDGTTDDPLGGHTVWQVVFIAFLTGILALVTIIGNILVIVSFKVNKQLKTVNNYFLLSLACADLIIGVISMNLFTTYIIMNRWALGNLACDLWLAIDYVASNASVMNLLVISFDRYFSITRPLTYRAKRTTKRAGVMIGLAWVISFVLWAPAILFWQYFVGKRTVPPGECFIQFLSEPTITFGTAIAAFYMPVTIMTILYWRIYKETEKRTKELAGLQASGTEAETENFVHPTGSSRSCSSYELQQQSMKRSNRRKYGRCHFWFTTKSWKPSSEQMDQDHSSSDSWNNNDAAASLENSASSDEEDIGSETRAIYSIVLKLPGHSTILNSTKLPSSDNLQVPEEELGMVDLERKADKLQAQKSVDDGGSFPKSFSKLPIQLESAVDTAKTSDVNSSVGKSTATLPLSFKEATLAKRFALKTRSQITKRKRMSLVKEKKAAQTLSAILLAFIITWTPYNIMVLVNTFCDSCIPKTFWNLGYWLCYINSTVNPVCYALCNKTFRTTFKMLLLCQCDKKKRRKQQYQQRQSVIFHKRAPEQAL
Chain of CYP3A4 (P08684 whole entry): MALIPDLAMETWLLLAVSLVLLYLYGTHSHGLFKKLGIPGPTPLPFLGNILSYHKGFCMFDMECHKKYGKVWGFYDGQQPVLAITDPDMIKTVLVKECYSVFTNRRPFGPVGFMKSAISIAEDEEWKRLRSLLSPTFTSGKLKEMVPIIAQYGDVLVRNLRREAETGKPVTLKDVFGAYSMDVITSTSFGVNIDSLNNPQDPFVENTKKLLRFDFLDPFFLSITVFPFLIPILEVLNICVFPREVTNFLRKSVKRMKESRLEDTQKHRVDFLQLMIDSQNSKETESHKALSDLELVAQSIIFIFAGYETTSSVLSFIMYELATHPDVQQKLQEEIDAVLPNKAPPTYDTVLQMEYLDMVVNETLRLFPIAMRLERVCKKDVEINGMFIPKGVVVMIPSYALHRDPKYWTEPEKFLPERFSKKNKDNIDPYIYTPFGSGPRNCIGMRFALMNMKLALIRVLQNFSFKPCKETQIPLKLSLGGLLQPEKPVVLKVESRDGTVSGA
Chain of human Histamine H2 (P25021 whole entry): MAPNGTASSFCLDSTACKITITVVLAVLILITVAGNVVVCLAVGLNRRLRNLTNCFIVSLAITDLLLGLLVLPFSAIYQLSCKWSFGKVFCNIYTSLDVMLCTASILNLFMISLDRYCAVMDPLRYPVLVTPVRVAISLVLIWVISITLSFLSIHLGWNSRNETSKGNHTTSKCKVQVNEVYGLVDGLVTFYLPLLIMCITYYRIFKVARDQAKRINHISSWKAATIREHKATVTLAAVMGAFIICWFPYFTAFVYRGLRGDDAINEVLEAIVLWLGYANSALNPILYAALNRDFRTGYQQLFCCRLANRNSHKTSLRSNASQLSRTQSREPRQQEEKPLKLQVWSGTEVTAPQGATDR
Chain of human Dopamine D2S (P14416 other isoform, or with tags, fused parts or gaps): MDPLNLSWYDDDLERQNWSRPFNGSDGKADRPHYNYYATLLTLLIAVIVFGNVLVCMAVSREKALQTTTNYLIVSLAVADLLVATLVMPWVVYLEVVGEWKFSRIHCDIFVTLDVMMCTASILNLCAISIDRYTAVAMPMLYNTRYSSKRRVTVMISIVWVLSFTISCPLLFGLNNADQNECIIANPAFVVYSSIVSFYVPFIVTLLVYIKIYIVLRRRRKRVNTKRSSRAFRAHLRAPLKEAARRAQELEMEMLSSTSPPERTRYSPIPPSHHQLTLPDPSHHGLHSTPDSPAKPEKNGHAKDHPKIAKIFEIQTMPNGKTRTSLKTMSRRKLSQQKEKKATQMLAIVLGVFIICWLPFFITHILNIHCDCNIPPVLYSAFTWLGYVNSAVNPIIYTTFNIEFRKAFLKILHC
Chain of human Adrenergic α2A (P08913 whole entry): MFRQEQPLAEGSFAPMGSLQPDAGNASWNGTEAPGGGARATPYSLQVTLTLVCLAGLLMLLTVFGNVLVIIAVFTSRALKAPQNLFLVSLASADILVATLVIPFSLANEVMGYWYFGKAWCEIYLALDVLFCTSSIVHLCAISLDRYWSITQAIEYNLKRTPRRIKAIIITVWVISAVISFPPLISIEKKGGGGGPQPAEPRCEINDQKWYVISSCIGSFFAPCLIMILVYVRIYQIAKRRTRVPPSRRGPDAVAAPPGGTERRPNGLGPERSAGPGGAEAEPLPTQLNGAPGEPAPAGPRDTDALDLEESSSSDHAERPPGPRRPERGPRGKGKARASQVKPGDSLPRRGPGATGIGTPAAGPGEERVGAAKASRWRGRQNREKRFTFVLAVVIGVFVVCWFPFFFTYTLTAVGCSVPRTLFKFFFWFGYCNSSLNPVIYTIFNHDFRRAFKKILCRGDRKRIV
Chain of human Bradykinin B1 (P46663 whole entry): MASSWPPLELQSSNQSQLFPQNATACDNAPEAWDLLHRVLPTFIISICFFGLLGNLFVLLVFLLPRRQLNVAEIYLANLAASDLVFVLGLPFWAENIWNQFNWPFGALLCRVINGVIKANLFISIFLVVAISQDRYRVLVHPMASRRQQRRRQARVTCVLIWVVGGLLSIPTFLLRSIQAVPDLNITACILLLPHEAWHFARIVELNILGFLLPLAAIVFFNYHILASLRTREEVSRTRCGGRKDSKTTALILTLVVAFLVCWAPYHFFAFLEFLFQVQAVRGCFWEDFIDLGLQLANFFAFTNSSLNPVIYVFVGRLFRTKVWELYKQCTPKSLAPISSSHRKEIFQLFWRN

## CCC(=O)c1sc(-c2cccc(F)c2)nc1[O-].[Na+] [Compound 2, sodium 2-(3-fluorophenyl)-5-propanoyl-1,3-thiazol-4-olate]
Human Cannabinoid CB1
  activity towards human Cannabinoid CB1: inactive
[1]
  activity towards human Serotoninergic 5-HT1A: inactive
Mechanical allodynia; [5]
  effect on mechanical allodynia: significantly attenuated
Mechanical allodynia; [6]
  maximal activity, inhibition of mechanical allodynia: about 50%
TRPV1
  IC50: > 10 µM
Human Adrenergic β1
  activity towards human Adrenergic β1: inactive
Human Dopamine D3
  activity towards human Dopamine D3: inactive
Human Opioid μ (MOP)
  activity towards human Opioid μ (MOP): inactive
physchem
  pKa: 4.18
Human NK1
  activity towards human NK1: inactive
Human Histamine H1
  activity towards human Histamine H1: inactive
Human Adrenergic α2A
  activity towards human Adrenergic α2A: inactive
Human Histamine H2
  activity towards human Histamine H2: inactive
[2]
  fraction unbound: 0.025
Rat Plasma Stability; at 30 min
  Rat Plasma Stability (% remaining): 98.2%
Rat Plasma Stability; at 60 min
  Rat Plasma Stability (% remaining): 80.3%
hERG channel
  IC50: > 1000 µM
  effect towards hERG channel: none effect
Human TRPM8
  IC50: 0.028 µM
Human Adrenergic β2
  activity towards human Adrenergic β2: inactive
Human Muscarinic M3
  activity towards human Muscarinic M3: inactive
Human Opioid δ2 (DOP)
  activity towards human Opioid δ2 (DOP): inactive
Human Bradykinin B2
  activity towards human Bradykinin B2: inactive
Human Opioid NOP (ORL1)
  activity towards human Opioid NOP (ORL1): inactive
CYP2C19
  IC50: > 30 µM
Human Dopamine D2S
  activity towards human Dopamine D2S: inactive
Human Bradykinin B1
  activity towards human Bradykinin B1: inactive
Human Cannabinoid CB2
  activity towards human Cannabinoid CB2: inactive
[3]; intravenous administration, IV 5 mg/kg
  Vds: 1.78 L/kg
[3]; [7]
  CL: 6.41 mL/min/kg
  t1/2: 2.94 h
[3]; [8]
  clearance: 6.81 mL/min/kg
  half-life: 3.01 h
[3]; [9]
  AUC: 26100 ng·h/mL
  Cmax: 10300 ng/mL
  Tmax: 0.25 h
  half-life: 2.94 h
[3]; plasma, oral administration, PO 10 mg/kg vs IV 5 mg/kg
  bioavailability: 100%
CYP2D6
  IC50: > 30 µM
CLint (rat)
  microsomal CLint: 29.4 µL/min/mg
CYP3A4
  IC50: > 30 µM
Human Adrenergic α1A
  activity towards human Adrenergic α1A: inactive
Human Muscarinic M2
  activity towards human Muscarinic M2: inactive
CYP2C9
  IC50: > 30 µM
Human cytochrome isoform
  effect towards any human cytochrome isoform: no effect
[4]
  fraction unbound: 0.0129
Human Opioid K (KOP)
  activity towards human Opioid K (KOP): inactive
Cold allodynia; [5]
  effect on cold allodynia: significantly attenuated
Cold allodynia; [6]
  maximal activity, inhibition of cold allodynia: about 50%
CYP1A2
  IC50: > 30 µM
